Data reported in PMC4080982, “Interactions of antagonists with subtypes of inositol 1,4,5-trisphosphate (IP3) receptor” (British Journal of Pharmacology, 2014).

Tests used:
[1] = tested on: permeabilized DT40-IP3R1-3 cells; test: Ca^2+ uptake and Ca^2+ content of the intracellular stores of permeabilized DT40 cells; assay type: cell-based
Protocol: Briefly, the ER was loaded with indicator by incubating cells (∼5 × 10^7 mL^−1) in the dark with Mag-fluo-4AM (20 μM) in HEPES-buffered saline (HBS) containing 0.02% (v/v) Pluronic F127 for 1 h at 22°C. […] Ca^2+-free CLM had the following composition: 2 mM NaCl, 140 mM KCl, 1 mM EGTA, 20 mM PIPES, 2 mM MgCl2, pH 7.0. Permeabilized cells were then distributed into 96-well plates (50 μL, 5 × 10^5 cells per well), centrifuged (300× g, 2 min) and used for experiments at 20°C. […] After 2 min, when the ER had loaded to steady-state with Ca^2+, IP3 was added with CPA (10 μM) to inhibit further Ca^2+ uptake. […] The timings of antagonist additions are described in the figure legends. The affinity of each competitive antagonist (pKD) was determined from the intercept on the abscissa of the Schild plot.

[2] = tested on: cerebellar membranes (IP3R1); test: ^3H-IP3 binding to cerebellar membranes; conditions: ^3H-IP3 1.5 nM, in CLM
Protocol: (§1) Reactions were terminated after 5 min by centrifugation (20,000× g, 5 min) for membranes, or by centrifugation after addition of poly(ethylene glycol)-8000 [30% (w/v), 500 μL] and γ-globulin (30 μL, 25 mg·mL^−1) for NT. […] Results were fitted to Hill equations using Prism, from which IC50 values were calculated.

mouse IP3R2 = molecular target: T1, mouse IP3R2 (Mus musculus, UniProt Q9Z329); test: IP3-evoked Ca^2+ release from permeabilized DT40-IP3R2 cells; assay type: cell-based
T1 construct: different for NTs (NT2 > NT1 > > NT3) and full-length IP3Rs (IP3R3 > IP3R1 ≥ IP3R2); expressed in transfected cells
T1 sequence (Q9Z329 whole entry): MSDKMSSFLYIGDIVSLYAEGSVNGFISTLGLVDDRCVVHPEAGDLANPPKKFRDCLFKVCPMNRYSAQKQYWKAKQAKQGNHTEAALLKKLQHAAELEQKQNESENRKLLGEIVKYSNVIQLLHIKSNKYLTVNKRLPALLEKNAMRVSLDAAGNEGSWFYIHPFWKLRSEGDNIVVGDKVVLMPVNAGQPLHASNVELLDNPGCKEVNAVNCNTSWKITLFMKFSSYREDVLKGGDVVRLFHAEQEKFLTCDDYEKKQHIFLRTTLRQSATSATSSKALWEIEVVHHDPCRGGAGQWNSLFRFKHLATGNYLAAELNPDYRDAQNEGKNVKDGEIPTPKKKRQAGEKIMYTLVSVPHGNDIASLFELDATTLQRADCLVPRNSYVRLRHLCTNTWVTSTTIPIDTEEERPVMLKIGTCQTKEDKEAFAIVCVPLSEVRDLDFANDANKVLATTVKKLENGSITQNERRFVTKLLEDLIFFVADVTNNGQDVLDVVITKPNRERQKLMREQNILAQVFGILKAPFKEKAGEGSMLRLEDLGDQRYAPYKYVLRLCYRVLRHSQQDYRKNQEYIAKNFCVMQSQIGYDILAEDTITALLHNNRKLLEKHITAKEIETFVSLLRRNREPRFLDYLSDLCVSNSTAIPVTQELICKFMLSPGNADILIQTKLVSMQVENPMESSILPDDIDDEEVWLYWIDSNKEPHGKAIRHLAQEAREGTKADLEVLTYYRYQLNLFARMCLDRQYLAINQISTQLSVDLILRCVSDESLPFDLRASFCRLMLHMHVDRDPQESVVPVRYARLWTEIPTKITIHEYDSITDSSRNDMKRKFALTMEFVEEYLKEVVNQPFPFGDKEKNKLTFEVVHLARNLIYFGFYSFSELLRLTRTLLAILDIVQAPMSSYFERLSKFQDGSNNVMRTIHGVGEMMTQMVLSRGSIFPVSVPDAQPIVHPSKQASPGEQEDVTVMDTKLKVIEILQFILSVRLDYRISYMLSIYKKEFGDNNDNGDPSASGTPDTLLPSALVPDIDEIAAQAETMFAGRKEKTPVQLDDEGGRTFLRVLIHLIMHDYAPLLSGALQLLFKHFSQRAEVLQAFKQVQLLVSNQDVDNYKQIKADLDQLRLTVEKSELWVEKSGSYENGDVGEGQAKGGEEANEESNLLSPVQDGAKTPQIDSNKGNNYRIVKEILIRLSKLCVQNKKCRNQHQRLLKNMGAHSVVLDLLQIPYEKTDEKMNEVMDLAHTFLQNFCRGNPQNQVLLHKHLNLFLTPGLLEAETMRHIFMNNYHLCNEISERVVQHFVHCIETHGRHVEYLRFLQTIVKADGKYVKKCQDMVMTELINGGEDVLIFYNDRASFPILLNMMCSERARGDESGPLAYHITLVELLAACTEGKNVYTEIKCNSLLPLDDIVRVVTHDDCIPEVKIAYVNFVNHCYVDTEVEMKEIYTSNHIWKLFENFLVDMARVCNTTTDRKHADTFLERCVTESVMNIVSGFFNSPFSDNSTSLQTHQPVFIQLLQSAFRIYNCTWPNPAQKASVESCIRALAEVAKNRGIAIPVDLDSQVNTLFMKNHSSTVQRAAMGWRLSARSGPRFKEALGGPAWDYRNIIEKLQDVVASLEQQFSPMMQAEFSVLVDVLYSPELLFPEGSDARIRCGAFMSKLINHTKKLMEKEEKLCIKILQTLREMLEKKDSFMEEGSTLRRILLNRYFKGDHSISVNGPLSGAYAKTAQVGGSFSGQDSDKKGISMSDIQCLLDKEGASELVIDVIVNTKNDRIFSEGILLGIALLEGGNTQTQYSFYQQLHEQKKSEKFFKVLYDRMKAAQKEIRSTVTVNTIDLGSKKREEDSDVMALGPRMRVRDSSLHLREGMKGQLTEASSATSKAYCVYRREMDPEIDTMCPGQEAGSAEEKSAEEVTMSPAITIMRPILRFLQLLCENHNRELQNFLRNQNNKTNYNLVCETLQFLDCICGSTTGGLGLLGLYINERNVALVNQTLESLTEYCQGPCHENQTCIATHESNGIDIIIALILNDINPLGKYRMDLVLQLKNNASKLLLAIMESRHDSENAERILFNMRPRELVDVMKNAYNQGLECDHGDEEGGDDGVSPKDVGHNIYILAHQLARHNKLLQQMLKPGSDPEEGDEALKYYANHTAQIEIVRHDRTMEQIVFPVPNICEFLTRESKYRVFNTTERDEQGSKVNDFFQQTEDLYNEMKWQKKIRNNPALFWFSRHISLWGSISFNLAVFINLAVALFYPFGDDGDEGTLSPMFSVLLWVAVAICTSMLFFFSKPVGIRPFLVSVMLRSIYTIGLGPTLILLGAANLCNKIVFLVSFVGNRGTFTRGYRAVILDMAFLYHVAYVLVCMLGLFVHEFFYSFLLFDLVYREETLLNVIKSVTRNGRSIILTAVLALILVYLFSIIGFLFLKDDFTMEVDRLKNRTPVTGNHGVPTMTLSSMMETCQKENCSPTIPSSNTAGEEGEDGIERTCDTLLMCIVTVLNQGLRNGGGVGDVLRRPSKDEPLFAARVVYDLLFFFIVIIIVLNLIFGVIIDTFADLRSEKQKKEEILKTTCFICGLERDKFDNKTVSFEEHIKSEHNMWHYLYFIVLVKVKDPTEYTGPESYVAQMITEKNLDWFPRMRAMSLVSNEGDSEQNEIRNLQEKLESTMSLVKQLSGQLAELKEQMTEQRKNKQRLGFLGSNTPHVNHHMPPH
Protocol: (§2) We used DT40 cells lacking endogenous IP3Rs (Sugawara et al., [1997]), but stably expressing rat IP3R1 (GenBank accession number GQ233032.1; Pantazaka and Taylor, [2011]), mouse IP3R2 (GU980658.1; Tovey et al., [2010]) or rat IP3R3 (GQ233031.1; Rahman et al., [2009]). Cells were grown in suspension in RPMI 1640 medium supplemented with 10% FBS, 1% heat-inactivated chicken serum, 2 mM glutamine and 50 μM 2-mercaptoethanol at 37°C in humidified air containing 5% CO2. Cells were used or passaged when they reached a density of ∼1.5 × 10^6 cells mL^−1.
(§3) A low-affinity Ca^2+ indicator trapped within the ER of permeabilized DT40 cells was used to measure IP3-evoked Ca^2+ release (Tovey et al., [2006]; Saleem et al., [2012]). Briefly, the ER was loaded with indicator by incubating cells (∼5 × 10^7 mL^−1) in the dark with Mag-fluo-4AM (20 μM) in HEPES-buffered saline (HBS) containing 0.02% (v/v) Pluronic F127 for 1 h at 22°C. HBS had the following composition: 135 mM NaCl, 5.9 mM KCl, 11.6 mM HEPES, 1.5 mM CaCl2, 11.5 mM glucose, 1.2 mM MgCl2, pH 7.3. After permeabilization of the plasma membrane with saponin (10 μg·mL^−1, 4 min, 37°C) in Ca^2+-free cytosol-like medium (CLM), permeabilized cells were washed (650× g, 2 min) and resuspended (∼10^7 mL^−1) in Mg^2+-free CLM containing carbonyl cyanide 4-(trifluoromethoxy) phenylhydrazone (FCCP, 10 μM) to inhibit mitochondria, and supplemented with CaCl2 to give a final free [Ca^2+] of 220 nM after addition of 1.5 mM MgATP. Ca^2+-free CLM had the following composition: 2 mM NaCl, 140 mM KCl, 1 mM EGTA, 20 mM PIPES, 2 mM MgCl2, pH 7.0. Permeabilized cells were then distributed into 96-well plates (50 μL, 5 × 10^5 cells per well), centrifuged (300× g, 2 min) and used for experiments at 20°C. Addition of MgATP (1.5 mM) allowed Ca^2+ uptake by the ER, which was monitored at intervals of ∼1 s using a FlexStation-3 plate reader (MDS Analytical Devices, Berkshire, UK; Tovey et al., [2006]). After 2 min, when the ER had loaded to steady-state with Ca^2+, IP3 was added with CPA (10 μM) to inhibit further Ca^2+ uptake. IP3-evoked Ca^2+ release was expressed as a fraction of that released by ionomycin (1 μM; Tovey et al., [2006]). Similar methods were used to measure IP3-evoked Ca^2+ release from intact or permeabilized HEK cells (Tovey et al., [2008]). The timings of antagonist additions are described in the figure legends. The affinity of each competitive antagonist (pKD) was determined from the intercept on the abscissa of the Schild plot.
(§4) Concentration–effect relationships were fitted to Hill equations using Prism (version 5.0, GraphPad, San Diego, CA, USA), from which Hill coefficients (h), the fraction of the intracellular Ca^2+ stores released by a maximally effective concentrations of IP3, and pEC50 values were calculated.

rat IP3R3 = molecular target: T2, rat IP3R3 (Rattus norvegicus, UniProt Q63269); test: IP3-evoked Ca^2+ release from permeabilized DT40-IP3R3 cells; assay type: cell-based
T2 construct: different for NTs (NT2 > NT1 > > NT3) and full-length IP3Rs (IP3R3 > IP3R1 ≥ IP3R2); expressed in transfected cells
Protocol: as §2, §3, §4

rat IP3R1 = molecular target: T3, rat IP3R1 (Rattus norvegicus, UniProt P29994); test: IP3-evoked Ca^2+ release from permeabilized DT40-IP3R1 cells; assay type: cell-based
T3 construct: different for NTs (NT2 > NT1 > > NT3) and full-length IP3Rs (IP3R3 > IP3R1 ≥ IP3R2); expressed in transfected cells
Protocol: as §2, §3, §4

HEK cells = test: Carbachol-evoked Ca^2+ signals in intact HEK cells; assay type: cell-based; conditions: Homo sapiens, HEK293; intact fluo-4-loaded HEK cells; control cells; read-out: pEC50 for the carbachol-evoked Ca^2+ signals (converted)
Protocol: as §3

[3] = molecular target: T4, NT2 (residues 1–604 of mouse IP3R2) (Mus musculus, UniProt Q9Z329); test: Equilibrium-competition binding with ^3H-IP3 to purified NT2; conditions: NT versus corresponding full-length IP3R
T4 construct: N-terminal fragments (NT, residues 1–604) of rat IP3R1, mouse IP3R2 and rat IP3R3; GST (cleaved yes); made in house; host or cells: E. coli BL21-CodonPlus (DE3)-RILP
T4 sequence (Q9Z329 1-604): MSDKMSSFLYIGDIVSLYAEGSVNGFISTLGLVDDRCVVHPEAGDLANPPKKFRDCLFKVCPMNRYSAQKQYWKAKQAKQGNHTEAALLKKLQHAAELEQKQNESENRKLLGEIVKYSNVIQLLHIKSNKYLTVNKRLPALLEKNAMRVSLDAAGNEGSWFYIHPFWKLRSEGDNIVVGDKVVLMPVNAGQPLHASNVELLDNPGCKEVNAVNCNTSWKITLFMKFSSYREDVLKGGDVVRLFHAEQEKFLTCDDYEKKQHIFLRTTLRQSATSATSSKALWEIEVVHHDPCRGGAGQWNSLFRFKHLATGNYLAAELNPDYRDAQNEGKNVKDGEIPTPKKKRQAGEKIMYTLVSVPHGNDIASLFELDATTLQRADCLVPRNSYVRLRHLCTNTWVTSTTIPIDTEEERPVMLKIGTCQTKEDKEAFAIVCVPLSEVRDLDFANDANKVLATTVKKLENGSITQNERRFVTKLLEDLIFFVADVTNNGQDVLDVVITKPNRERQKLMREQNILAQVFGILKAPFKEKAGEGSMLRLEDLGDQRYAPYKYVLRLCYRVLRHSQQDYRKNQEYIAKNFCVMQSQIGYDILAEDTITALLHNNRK
Protocol: The plasmids used for bacterial expression of GST-tagged N-terminal fragments (NT, residues 1–604) of rat IP3R1, mouse IP3R2 and rat IP3R3 have been described, and their coding sequences have been confirmed (Khan et al., [2013]). Plasmids were transformed into BL21-CodonPlus (DE3)-RILP competent cells (Rossi and Taylor, [2011]), and grown for 12 h at 37°C in 20 mL of Luria-Bertani (LB) medium containing carbecillin (50 μg·mL^−1). The volume of medium was then increased to 1 L, and the incubation was continued at 37°C for 3–4 h until the OD600 reached 1–1.5. Protein expression was induced by addition of IPTG (0.5 mM) for 20 h at 15°C. Bacteria were harvested (6000× g, 5 min), washed twice with cold PBS, and the pellet was suspended (∼10^9 cells·mL^−1) in 50 mL of Tris-EDTA medium (TEM: 50 mM Tris, 1 mM EDTA, pH 8.3) supplemented with 10% PopCulture, 1 mM 2-mercaptoethanol and protease inhibitor cocktail (Roche, Burgess Hill, West Sussex, UK; 1 tablet per 50 mL). […]
as §1

[4] = IP3R2, IP3-evoked Ca^2+ release
[5] = IP3R3, AdA-evoked Ca^2+ release
[6] = IP3R1, AdA-evoked Ca^2+ release
[7] = IP3R1, IP3-evoked Ca^2+ release
[8] = IP3R1, heparin 400 μg·mL^−1, Δ = control – response with antagonist

With NCCOB(c1ccccc1)c1ccccc1 [2-APB, 2-aminoethoxydiphenyl borate] the “effect on Ca^2+ uptake by the ER” value ([1]; permeabilized DT40-IP3R1 cells, 50 μM 2-APB) was “no effect”, the “effect on steady-state Ca^2+ content of the ER” value ([1]; permeabilized DT40-IP3R1 cells, 2-APB concentrations higher than 50 μM) was “reduced the steady-state Ca^2+ content” and the “effect on binding of ^3H-IP3 to cerebellar membranes” value [2] was “unaffected”. For the same compound, the “effect on IP3-evoked Ca^2+ release” value (mouse IP3R2; DT40-IP3R2 cells, 2-APB 50 μM) was “no significant effect”, the ΔMax (mouse IP3R2; IP3R2, 2-APB 50 μM) was 0 ± 4% and the “effect on IP3-evoked Ca^2+ release” value (mouse IP3R2; IP3R2, 2-APB 100 μM) was “no effect”. The “effect on IP3-evoked Ca^2+ release” value (rat IP3R3; DT40-IP3R3 cells, 2-APB 50 μM) was “no significant effect”, the ΔMax (rat IP3R3; IP3R3, 2-APB 50 μM) was 8 ± 4% and the ΔpEC50 (rat IP3R3; IP3R3, 2-APB 50 μM) was 0.02 ± 0.09 M. The “effect on IP3-evoked Ca^2+ release” value (rat IP3R3; IP3R3, 2-APB 100 μM) was “some inhibition”, the ΔMax (rat IP3R1; IP3R1, 2-APB 50 μM) was 0 ± 4% and the ΔpEC50 (rat IP3R1; IP3R1, 2-APB 50 μM added 35 s before IP3) was 0.84 ± 0.12 M.

Nc1ncnc2c1ncn2[C@@H]1O[C@H](CO)[C@@H](O[C@H]2O[C@H](CO)[C@@H](OP(=O)(O)O)[C@H](OP(=O)(O)O)[C@H]2O)[C@H]1OP(=O)(O)O [AdA, adenophostin A] gave an EC50 (rat IP3R3; permeabilized DT40-IP3R3 cells, read-out: pEC50 (IP3 or AdA-evoked Ca^2+ release) (converted)) of 19.5 nM and an EC50 (rat IP3R1; permeabilized DT40-IP3R1 cells, read-out: pEC50 (IP3 or AdA-evoked Ca^2+ release) (converted)) of 4.47 nM.

For Cn1c(=O)c2c(ncn2C)n(C)c1=O [Caffeine], the “effect on Ca^2+ content of the intracellular stores” value ([1]; DT40-IP3R1-3 cells, caffeine 70 mM added 2 min before ATP) was “significantly reduced” and the “effect on binding of ^3H-IP3 to cerebellar membranes” value [2] was “without affecting”.

Work on C[N+](C)(C)CCOC(N)=O [carbachol, Carbachol] yielded an EC50 (HEK cells) of 10200 nM.

Heparin was tested, and the “affinity of the NT for heparin relative to that measured in functional analyses / full-length IP3R” value [3] was “up to 2000 fold”, the “KD for heparin (Schild plot)” value (mouse IP3R2; [4]) was 22 µg/mL and the “slope of the Schild plots” value (mouse IP3R2; [4]) was 0.97 ± 0.06. The ΔMax (mouse IP3R2; IP3R2, heparin 800 μg·mL^−1) was −4 ± 2%, the ΔpEC50 (mouse IP3R2; IP3R2, heparin 800 μg·mL^−1) was 1.49 ± 0.09 M and the “pEC50(IP3)-pKD(heparin)” value (mouse IP3R2; IP3R2, paired comparisons) was 2.16 ± 0.09. For the same compound, the “KD for heparin (Schild plot)” value (rat IP3R3; [5]) was 2.1 µg/mL, the “slope of the Schild plots” value (rat IP3R3; [5]) was 0.98 ± 0.04 and the “slope of the Schild plots” value (rat IP3R3; IP3R3, IP3-evoked Ca^2+ release) was 1.14 ± 0.41. The “KD for heparin (Schild plot)” value (rat IP3R3; IP3R3, IP3-evoked Ca^2+ release, 40% Ca^2+ release) was 2.8 µg/mL, the ΔMax (rat IP3R3; IP3R3, heparin 400 μg·mL^−1) was −3 ± 3% and the ΔpEC50 (rat IP3R3; IP3R3, heparin 400 μg·mL^−1) was 2.34 ± 0.07 M. The “pEC50(IP3)-pKD(heparin)” value (rat IP3R3; IP3R3, paired comparisons) was 1.11 ± 0.08, the “KD for heparin (Schild plot)” value (rat IP3R1; [6]) was 6.9 µg/mL and the “slope of the Schild plots” value (rat IP3R1; [6]) was 0.94 ± 0.03. For the same compound, the “KD for heparin (Schild plot)” value (rat IP3R1; [7]) was 4.1 µg/mL, the “slope of the Schild plots” value (rat IP3R1; [7]) was 0.95 ± 0.02 and the ΔMax (rat IP3R1; [8]) was −7 ± 2%. For the same compound, the ΔpEC50 (rat IP3R1; [8]) was 1.88 ± 0.05 M and the “pEC50(IP3)-pKD(heparin)” value (rat IP3R1; IP3R1, paired comparisons) was 2.08 ± 0.02.
